# According to PubChem BioAssay (NCI):
#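 Cultured in 96-well plates, cells were exposed to test compound for 48 hours across five concentrations. TGI: concentration producing complete growth inhibition.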
# Experiments:
# Test in all cases: NCI anticancer screen, dose series, 48 h
# [1] = tested on: PC-3 prostate
# [2] = tested on: K-562 leukemia
# [3] = tested on: T-47D breast
# [4] = tested on: HOP-62 NSCLC
# [5] = tested on: NCI-H460 lung
# [6] = tested on: RPMI-8226 leukemia
# [7] = tested on: HOP-92 NSCLC
# [8] = tested on: SK-MEL-5 melanoma
# [9] = tested on: LOX IMVI melanoma
# [10] = tested on: DU-145 prostate
# [11] = tested on: MDA-N
# [12] = tested on: UACC-257 melanoma
# [13] = tested on: SF-295 CNS
# [14] = tested on: SR leukemia
# [15] = tested on: EKVX NSCLC
# [16] = tested on: UACC-62 melanoma
# [17] = tested on: CAKI-1 renal
# [18] = tested on: HS 578T breast
# [19] = tested on: HT29 colon
# [20] = tested on: MCF7 breast
# [21] = tested on: NCI/ADR-RES ovarian
# [22] = tested on: SF-268 CNS
# [23] = tested on: KM12 colon
# [24] = tested on: A549 NSCLC
# [25] = tested on: TK-10 renal
# [26] = tested on: MALME-3M melanoma
# [27] = tested on: OVCAR-8 ovarian
# [28] = tested on: ACHN renal
# [29] = tested on: MDA-MB-435
# [30] = tested on: MDA-MB-231 breast
# [31] = tested on: HCT-15 colon
# [32] = tested on: SK-MEL-28 melanoma
# [33] = tested on: OVCAR-4 ovarian
# [34] = tested on: MOLT-4 leukemia
# [35] = tested on: A498 renal
# [36] = tested on: SF-539 CNS
# [37] = tested on: COLO 205 colon
# [38] = tested on: OVCAR-3 ovarian
# [39] = tested on: SNB-19 CNS
# [40] = tested on: RXF 393 renal
# [41] = tested on: CCRF-CEM leukemia
# [42] = tested on: IGROV1 ovarian
# [43] = tested on: HL-60(TB) leukemia
# [44] = tested on: SW-620 colon
# [45] = tested on: M14 melanoma
# [46] = tested on: SK-OV-3 ovarian
# [47] = tested on: UO-31 renal
# [48] = tested on: U251 CNS
# [49] = tested on: SNB-75 CNS
# [50] = tested on: NCI-H226 lung
# [51] = tested on: NCI-H23 lung
# [52] = tested on: SK-MEL-2 melanoma
# [53] = tested on: OVCAR-5 ovarian
# [54] = tested on: HCC-2998 colon
# [55] = tested on: NCI-H522 lung
# [56] = tested on: BT-549 breast
# [57] = tested on: SN12C renal
# [58] = tested on: HCT-116 colon
# [59] = tested on: 786-0 renal
smiles,measurement,setting,value
C[C@]12CC[C@@H]3c4ccc(O)cc4CC[C@H]3[C@@H]1C/C(=C\c1ccncc1)C2=O,TGI,[1],> 100 µM
same,TGI,[2],> 100 µM
same,TGI,[3],> 100 µM
same,TGI,[4],> 100 µM
same,TGI,[5],> 100 µM
same,TGI,[6],> 100 µM
same,TGI,[7],> 100 µM
same,TGI,[8],27.9 µM
same,TGI,[9],58.9 µM
same,TGI,[10],91.6 µM
same,TGI,[11],> 100 µM
same,TGI,[12],> 100 µM
same,TGI,[13],> 100 µM
same,TGI,[14],> 100 µM
same,TGI,[15],> 100 µM
same,TGI,[16],50.9 µM
same,TGI,[17],> 100 µM
same,TGI,[18],62.7 µM
same,TGI,[19],72.2 µM
same,TGI,[20],> 100 µM
same,TGI,[21],60.1 µM
same,TGI,[22],> 100 µM
same,TGI,[23],37.6 µM
same,TGI,[24],> 100 µM
same,TGI,[25],> 100 µM
same,TGI,[26],54.8 µM
same,TGI,[27],56.3 µM
same,TGI,[28],> 100 µM
same,TGI,[29],74.9 µM
same,TGI,[30],> 100 µM
same,TGI,[31],> 100 µM
same,TGI,[32],> 100 µM
same,TGI,[33],> 100 µM
same,TGI,[34],> 100 µM
same,TGI,[35],91.4 µM
same,TGI,[36],28.9 µM
same,TGI,[37],> 100 µM
same,TGI,[38],50.5 µM
same,TGI,[39],> 100 µM
same,TGI,[40],> 100 µM
same,TGI,[41],> 100 µM
same,TGI,[42],68.3 µM
same,TGI,[43],68 µM
same,TGI,[44],> 100 µM
same,TGI,[45],> 100 µM
same,TGI,[46],> 100 µM
same,TGI,[47],> 100 µM
same,TGI,[48],> 100 µM
same,TGI,[49],> 100 µM
same,TGI,[50],68.6 µM
same,TGI,[51],> 100 µM
same,TGI,[52],48.7 µM
same,TGI,[53],> 100 µM
same,TGI,[54],> 100 µM
Nc1nc2cc3nc(N)c(N)nc3cc2nc1N,TGI,[1],> 100 µM
same,TGI,[55],> 100 µM
same,TGI,[5],> 100 µM
same,TGI,[6],> 100 µM
same,TGI,[8],> 100 µM
same,TGI,[9],> 100 µM
same,TGI,[10],> 100 µM
same,TGI,[11],> 100 µM
same,TGI,[12],> 100 µM
same,TGI,[13],> 100 µM
same,TGI,[14],> 100 µM
same,TGI,[15],> 100 µM
same,TGI,[16],> 100 µM
same,TGI,[17],> 100 µM
same,TGI,[18],> 100 µM
same,TGI,[19],> 100 µM
same,TGI,[56],> 100 µM
same,TGI,[20],> 100 µM
same,TGI,[21],> 100 µM
same,TGI,[22],> 100 µM
same,TGI,[57],> 100 µM
same,TGI,[23],> 100 µM
same,TGI,[24],> 100 µM
same,TGI,[25],> 100 µM
same,TGI,[26],> 100 µM
same,TGI,[27],> 100 µM
same,TGI,[28],> 100 µM
same,TGI,[29],> 100 µM
same,TGI,[30],> 100 µM
same,TGI,[31],> 100 µM
same,TGI,[32],> 100 µM
same,TGI,[34],> 100 µM
same,TGI,[35],> 100 µM
same,TGI,[36],> 100 µM
same,TGI,[37],> 100 µM
same,TGI,[38],> 100 µM
same,TGI,[39],> 100 µM
same,TGI,[40],> 100 µM
same,TGI,[41],> 100 µM
same,TGI,[42],> 100 µM
same,TGI,[43],> 100 µM
same,TGI,[44],> 100 µM
same,TGI,[45],> 100 µM
same,TGI,[46],> 100 µM
same,TGI,[47],> 100 µM
same,TGI,[58],> 100 µM
same,TGI,[48],> 100 µM
same,TGI,[49],> 100 µM
same,TGI,[50],> 100 µM
same,TGI,[51],> 100 µM
same,TGI,[52],> 100 µM
same,TGI,[53],> 100 µM
same,TGI,[59],> 100 µM
same,TGI,[54],> 100 µM
CC(C)OP(=O)(OC(C)C)c1c(Nc2ccccc2)n[nH]c1N,TGI,[1],> 100 µM
same,TGI,[2],> 100 µM
same,TGI,[3],> 100 µM
same,TGI,[4],> 100 µM
same,TGI,[55],> 100 µM
same,TGI,[5],> 100 µM
same,TGI,[6],> 100 µM
same,TGI,[7],> 100 µM
same,TGI,[8],> 100 µM
same,TGI,[9],> 100 µM
same,TGI,[10],> 100 µM
same,TGI,[11],> 100 µM
same,TGI,[12],> 100 µM
same,TGI,[13],> 100 µM
same,TGI,[14],> 100 µM
same,TGI,[15],> 100 µM
same,TGI,[16],> 100 µM
same,TGI,[17],> 100 µM
same,TGI,[18],> 100 µM
same,TGI,[19],> 100 µM
same,TGI,[20],> 100 µM
same,TGI,[21],> 100 µM
same,TGI,[22],> 100 µM
same,TGI,[23],> 100 µM
same,TGI,[24],> 100 µM
same,TGI,[25],> 100 µM
same,TGI,[26],> 100 µM
same,TGI,[27],> 100 µM
same,TGI,[28],> 100 µM
same,TGI,[29],> 100 µM
same,TGI,[30],> 100 µM
same,TGI,[31],> 100 µM
same,TGI,[32],> 100 µM
same,TGI,[33],> 100 µM
same,TGI,[34],> 100 µM
same,TGI,[35],> 100 µM
same,TGI,[36],> 100 µM
same,TGI,[37],> 100 µM
same,TGI,[38],> 100 µM
same,TGI,[39],> 100 µM
same,TGI,[40],> 100 µM
same,TGI,[41],> 100 µM
same,TGI,[42],> 100 µM
same,TGI,[44],> 100 µM
same,TGI,[45],> 100 µM
same,TGI,[46],> 100 µM
same,TGI,[47],> 100 µM
same,TGI,[48],> 100 µM
same,TGI,[49],> 100 µM
same,TGI,[50],> 100 µM
same,TGI,[51],> 100 µM
same,TGI,[52],> 100 µM
same,TGI,[53],> 100 µM
same,TGI,[54],> 100 µM
